{"source": "patent US11723903B2", "about": "“Treatment of schizophrenia” (Vanda Pharmaceuticals Inc., priority 2015, dated 2023)", "key": {"[1]": {"assay": "post-marketing experience (post-approval use): adverse reactions in treated patients", "format": "in vivo", "settings": "for adverse reactions associated with treatment, identified during post-approval use: reported voluntarily from a population of uncertain size, frequency and causality not established", "from_the_text": "This invention comprises the discovery through post-marketing experience that treatment of patients with iloperidone has been associated with specific adverse reactions.\nWithout limiting this invention to a particular mechanism of action, the enumerated reactions may be hypersensitivity reactions. An aspect of this invention therefore comprises amending the contraindications section and/or the adverse events section of the iloperidone package insert, i.e., prescribing information, to read more or less as follows: • 4 CONTRAINDICATIONS • FANAPT is contraindicated in individuals with a known hypersensitivity reaction to the product. […] Because these reactions were reported voluntarily from a population of uncertain size, it is not possible to reliably estimate their frequency or establish a causal relationship to drug exposure."}, "[2]": {"settings": "prescribing information approved as of the priority date; cited from earlier work"}}, "data": [{"smiles": "COc1cc(C(C)=O)ccc1OCCCN1CCC(c2noc3cc(F)ccc23)CC1", "note": "[iloperidone]", "values": [{"measurement": "relative frequency among the enumerated reactions", "setting": "[1]", "result": "rash was the most common followed by swollen tongue and swollen lip"}, {"measurement": "adverse reactions associated with treatment, identified during post-approval use", "setting": "[1]", "result": "anaphylaxis, angioedema, throat tightness, oropharyngeal swelling, swelling of the face, lip, mouth, and tongue; urticaria, rash, and pruritus"}, {"measurement": "adverse reactions associated with treatment, identified during post-approval use", "setting": "[1]; listed as FANAPT", "result": "retrograde ejaculation and hypersensitivity reactions (including anaphylaxis, angioedema, throat tightness, oropharyngeal swelling, swelling of the face, lip, mouth, and/or tongue; urticaria, rash, and pruritus)"}, {"measurement": "known hypersensitivity reactions to the product (Contraindications section)", "setting": "[2]", "result": "pruritus and urticaria"}]}]}
